How the values were obtained:
chickweed [1] = experiment: Test C preemergence/postemergence greenhouse plant response rating 0 to 100; format: in vivo, Stellaria media; details: POSTEMERGENCE; for Plant response rating, Chickweed: 0 to 100 scale
Summary of the method: (§1)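 Compounds in non-phytotoxic solvent went onto sandy loam before emergence (seeded one day earlier) or onto plants at the one-to-four leaf stage. Duck salad was treated via flood water (~2.5 cm, maintained) over silt loam.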

wild oat = experiment: Test B preemergence/postemergence greenhouse plant response rating 0 to 10; format: in vivo, Avena fatua; details: 0 to 10 scale
Summary of the method: (§2)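 Postemergence treatment of plants two to eighteen cm tall ran alongside preemergence treatment of planted seed, each using compound in a non-phytotoxic solvent.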

sorghum = experiment: as above; format: in vivo, Sorghum bicolor; details: 0 to 10 scale
Summary of the method: as §2

downy brome = experiment: Test C preemergence/postemergence greenhouse plant response rating 0 to 100; format: in vivo, Bromus tectorum; details: POSTEMERGENCE; for Plant response rating Downy Brome: 0 to 100 scale
Summary of the method: as §1

wheat = experiment: Test B preemergence/postemergence greenhouse plant response rating 0 to 10; format: in vivo, Triticum aestivum; details: 0 to 10 scale
Summary of the method: as §2

wild buckwheat = experiment: Test C preemergence/postemergence greenhouse plant response rating 0 to 100; format: in vivo, Polygonum convolvulus; details: POSTEMERGENCE; for Plant response rating, Wild buckwheat: 0 to 100 scale
Summary of the method: as §1

morningglory [2] = experiment: Test B preemergence/postemergence greenhouse plant response rating 0 to 10; format: in vivo, Ipomoea hederacea; details: 0 to 10 scale
Summary of the method: as §2

crabgrass = experiment: as above; format: in vivo, Digitaria spp.; details: 0 to 10 scale
Summary of the method: as §2

barley = experiment: Test C preemergence/postemergence greenhouse plant response rating 0 to 100; format: in vivo, Hordeum vulgare; details: POSTEMERGENCE; for Plant response rating Barley Igri: 0 to 100 scale
Summary of the method: as §1

rape = experiment: Test B preemergence/postemergence greenhouse plant response rating 0 to 10; format: in vivo, Brassica napus; details: 0 to 10 scale
Summary of the method: as §2

morningglory [3] = experiment: Test C preemergence/postemergence greenhouse plant response rating 0 to 100; format: in vivo, Ipomoea hederacea; details: POSTEMERGENCE; for Plant response rating, Morningglory: 0 to 100 scale
Summary of the method: as §1

purple nutsedge = experiment: Test B preemergence/postemergence greenhouse plant response rating 0 to 10; format: in vivo, Cyperus rotundus; details: 0 to 10 scale
Summary of the method: as §2

soybean [4] = experiment: Test C preemergence/postemergence greenhouse plant response rating 0 to 100; format: in vivo, Glycine max; details: POSTEMERGENCE; for Plant response rating, Soybean: 0 to 100 scale
Summary of the method: as §1

umbrella sedge = experiment: Test C flood test plant response rating 0 to 100; format: in vivo, Cyperus difformis; details: for Plant response rating Umbrella sedge: flood test species listed under POSTEMERGENCE, 0 to 100 scale
Summary of the method: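 Compounds in non-phytotoxic solvent applied preemergence to sandy loam one day after planting, postemergence at the 1–4 leaf stage, or to ~2.5 cm floodwater over silt loam.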

corn = experiment: Test B preemergence/postemergence greenhouse plant response rating 0 to 10; format: in vivo, Zea mays; details: 0 to 10 scale
Summary of the method: as §2

soybean [5] = experiment: as above; format: in vivo, Glycine max; details: 0 to 10 scale
Summary of the method: as §2

chickweed [6] = experiment: as above; format: in vivo, Stellaria media; details: 0 to 10 scale
Summary of the method: as §2

bedstraw = experiment: Test C preemergence/postemergence greenhouse plant response rating 0 to 100; format: in vivo, Galium aparine; details: POSTEMERGENCE; for Plant response rating, Bedstraw: 0 to 100 scale
Summary of the method: as §1

Structure (SMILES): COC(=O)c1cc(-c2nn3c(c2Cl)CCCC3)c(F)cc1Cl [Compound 43]
- Plant response rating, Chickweed (chickweed [1]; 62 g/ha): 90
- Plant response rating, Chickweed (chickweed [1]; 250 g/ha): 100
- Plant response rating (0 to 100), Chickweed (chickweed [1]; Rate 4 g/ha): 60
- Plant response rating (0 to 100), Chickweed (chickweed [1]; Rate 16 g/ha): 80
- Plant response rating, Wild oat (wild oat; POSTEMERGENCE, Rate 50 g/ha): 5
- Plant response rating, Wild oat (wild oat; PREEMERGENCE, Rate 50 g/ha): 2
- Plant response rating, Wild oat (wild oat; Rate 200 g/ha, POSTEMERGENCE): 7
- Plant response rating, Sorghum (sorghum; POSTEMERGENCE, Rate 50 g/ha): 5
- Plant response rating, Sorghum (sorghum; PREEMERGENCE, Rate 50 g/ha): 0
- Plant response rating, Sorghum (sorghum; Rate 200 g/ha, POSTEMERGENCE): 8
- Plant response rating, Sorghum (sorghum; Rate 200 g/ha, PREEMERGENCE): 2
- Plant response rating Downy Brome (downy brome; 62 g/ha): 50
- Plant response rating Downy Brome (downy brome; 250 g/ha): 80
- Plant response rating (0 to 100), Downy Brome (downy brome; Rate 4 g/ha): 30
- Plant response rating (0 to 100), Downy Brome (downy brome; Rate 16 g/ha): 40
- Plant response rating, Wheat (wheat; POSTEMERGENCE, Rate 50 g/ha): 3
- Plant response rating, Wheat (wheat; PREEMERGENCE, Rate 50 g/ha): 0
- Plant response rating, Wheat (wheat; Rate 200 g/ha, POSTEMERGENCE): 8
- Plant response rating, Wheat (wheat; Rate 200 g/ha, PREEMERGENCE): 2
- Plant response rating, Wild buckwheat (wild buckwheat; 62 g/ha): 100
- Plant response rating, Wild buckwheat (wild buckwheat; 250 g/ha): 100
- Plant response rating (0 to 100), Wild buckwheat (wild buckwheat; Rate 4 g/ha): 60
- Plant response rating (0 to 100), Wild buckwheat (wild buckwheat; Rate 16 g/ha): 100
- Plant response rating, Morningglory (morningglory [2]; POSTEMERGENCE, Rate 50 g/ha): 10
- Plant response rating, Morningglory (morningglory [2]; PREEMERGENCE, Rate 50 g/ha): 0
- Plant response rating, Morningglory (morningglory [2]; Rate 200 g/ha, POSTEMERGENCE): 10
- Plant response rating, Morningglory (morningglory [2]; Rate 200 g/ha, PREEMERGENCE): 0
- Plant response rating, Crabgrass (crabgrass; POSTEMERGENCE, Rate 50 g/ha): 4
- Plant response rating, Crabgrass (crabgrass; PREEMERGENCE, Rate 50 g/ha): 0
- Plant response rating, Crabgrass (crabgrass; Rate 200 g/ha, PREEMERGENCE): 0
- Plant response rating Barley Igri (barley; 62 g/ha): 50
- Plant response rating Barley Igri (barley; 250 g/ha): 60
- Plant response rating (0 to 100), Barley Igri (barley; Rate 4 g/ha): 30
- Plant response rating (0 to 100), Barley Igri (barley; Rate 16 g/ha): 40
- Plant response rating, Rape (rape; POSTEMERGENCE, Rate 50 g/ha): 9
- Plant response rating, Rape (rape; PREEMERGENCE, Rate 50 g/ha): 0
- Plant response rating, Rape (rape; Rate 200 g/ha, POSTEMERGENCE): 10
- Plant response rating, Rape (rape; Rate 200 g/ha, PREEMERGENCE): 9
- Plant response rating, Morningglory (morningglory [3]; 62 g/ha): 90
- Plant response rating, Morningglory (morningglory [3]; 250 g/ha): 100
- Plant response rating (0 to 100), Morningglory (morningglory [3]; Rate 4 g/ha): 40
- Plant response rating (0 to 100), Morningglory (morningglory [3]; Rate 16 g/ha): 60
- Plant response rating, Nutsedge (purple nutsedge; POSTEMERGENCE, Rate 50 g/ha): 3
- Plant response rating, Nutsedge (purple nutsedge; PREEMERGENCE, Rate 50 g/ha): 0
- Plant response rating, Nutsedge (purple nutsedge; Rate 200 g/ha, POSTEMERGENCE): 3
- Plant response rating, Nutsedge (purple nutsedge; Rate 200 g/ha, PREEMERGENCE): 0
- Plant response rating, Soybean (soybean [4]; 62 g/ha): 70
- Plant response rating, Soybean (soybean [4]; 250 g/ha): 90
- Plant response rating (0 to 100), Soybean (soybean [4]; Rate 4 g/ha): 40
- Plant response rating (0 to 100), Soybean (soybean [4]; Rate 16 g/ha): 50
- Plant response rating (0 to 100), Umbrella sedge (umbrella sedge; POSTEMERGENCE section, flood test, Rate 4 g/ha): 0
- Plant response rating (0 to 100), Umbrella sedge (umbrella sedge; Rate 16 g/ha, under POSTEMERGENCE head (flood test species)): 0
- Plant response rating Umbrella sedge (umbrella sedge; 62 g/ha): 60
- Plant response rating Umbrella sedge (umbrella sedge; 250 g/ha): 70
- Plant response rating, Corn (corn; POSTEMERGENCE, Rate 50 g/ha): 8
- Plant response rating, Corn (corn; POSTEMERGENCE, Rate 200 g/ha): 10
- Plant response rating, Corn (corn; PREEMERGENCE, Rate 50 g/ha): 0
- Plant response rating, Corn (corn; Rate 200 g/ha, PREEMERGENCE): 0
- Plant response rating, Soybean (soybean [5]; POSTEMERGENCE, Rate 50 g/ha): 8
- Plant response rating, Soybean (soybean [5]; PREEMERGENCE, Rate 50 g/ha): 4
- Plant response rating, Soybean (soybean [5]; Rate 200 g/ha, POSTEMERGENCE): 9
- Plant response rating, Soybean (soybean [5]; Rate 200 g/ha, PREEMERGENCE): 3
- Plant response rating, Chickweed (chickweed [6]; POSTEMERGENCE, Rate 200 g/ha): 10
- Plant response rating, Chickweed (chickweed [6]; PREEMERGENCE, Rate 50 g/ha): 0
- Plant response rating, Chickweed (chickweed [6]; Rate 200 g/ha, PREEMERGENCE): 10
- Plant response rating, Bedstraw (bedstraw; 62 g/ha): 70
- Plant response rating, Bedstraw (bedstraw; 250 g/ha): 100
- Plant response rating (0 to 100), Bedstraw (bedstraw; Rate 4 g/ha): 40
- Plant response rating (0 to 100), Bedstraw (bedstraw; Rate 16 g/ha): 60

From patent US6358885B1, “Substituted phenylheterocyclic herbicides” (Mississippi State University, priority 1992, dated 2002)
